Columns and labels:
[1] = biological target: EGFR (UniProt P00533)
[2] = biological target: EGFR (UniProt P00533); remark: listed apart in the source

EGFR, sequence (P00533 whole entry, looked up): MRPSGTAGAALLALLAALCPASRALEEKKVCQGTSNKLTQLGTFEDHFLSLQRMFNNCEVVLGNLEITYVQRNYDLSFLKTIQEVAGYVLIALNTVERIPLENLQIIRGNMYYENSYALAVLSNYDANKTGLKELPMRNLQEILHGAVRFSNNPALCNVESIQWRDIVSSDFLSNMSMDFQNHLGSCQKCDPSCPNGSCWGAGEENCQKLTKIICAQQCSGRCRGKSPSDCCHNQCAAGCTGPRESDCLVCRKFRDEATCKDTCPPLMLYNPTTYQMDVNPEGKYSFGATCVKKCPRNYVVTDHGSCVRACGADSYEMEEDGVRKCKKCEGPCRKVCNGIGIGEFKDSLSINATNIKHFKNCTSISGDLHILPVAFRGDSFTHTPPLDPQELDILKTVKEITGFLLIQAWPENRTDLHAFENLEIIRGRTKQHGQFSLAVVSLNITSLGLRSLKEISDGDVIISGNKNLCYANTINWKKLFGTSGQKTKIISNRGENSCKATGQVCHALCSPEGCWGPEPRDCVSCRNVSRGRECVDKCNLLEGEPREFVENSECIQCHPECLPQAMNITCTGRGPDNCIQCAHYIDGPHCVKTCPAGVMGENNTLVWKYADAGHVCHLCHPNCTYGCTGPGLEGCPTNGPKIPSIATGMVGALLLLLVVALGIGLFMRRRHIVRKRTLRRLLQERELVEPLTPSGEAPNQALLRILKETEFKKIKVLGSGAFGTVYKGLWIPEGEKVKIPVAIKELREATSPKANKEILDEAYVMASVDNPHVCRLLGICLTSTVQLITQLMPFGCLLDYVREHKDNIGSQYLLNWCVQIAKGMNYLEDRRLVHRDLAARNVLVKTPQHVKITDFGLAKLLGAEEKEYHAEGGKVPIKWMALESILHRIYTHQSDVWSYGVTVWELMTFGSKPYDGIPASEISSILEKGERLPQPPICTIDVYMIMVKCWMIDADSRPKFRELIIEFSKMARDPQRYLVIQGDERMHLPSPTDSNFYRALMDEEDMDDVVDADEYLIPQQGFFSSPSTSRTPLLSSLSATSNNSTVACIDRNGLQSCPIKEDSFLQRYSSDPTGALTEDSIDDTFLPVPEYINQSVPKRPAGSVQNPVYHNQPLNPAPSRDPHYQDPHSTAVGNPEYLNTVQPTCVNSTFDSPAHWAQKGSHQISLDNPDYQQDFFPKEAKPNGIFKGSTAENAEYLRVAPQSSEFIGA

| Compound | Ki [1] [µM] | IC50 [2] [µM] | IC50 [1] [µM] |
| --- | --- | --- | --- |
| N#C/C(=C\c1ccc([N+](=O)[O-])cc1)C(=O)O | 1300 |  |  |
| N#CC(C#N)=C(N)/C(C#N)=C/c1ccc(O)c(O)c1 |  | 1.8 |  |
| O=C(O)/C=C/c1cc(O)ccc1O |  |  | 4.4 |
| COc1cc(C=C(C#N)C#N)cc(O)c1O |  | 20 |  |
| N#CC(C#N)=Cc1cc(O)c(O)c(O)c1 | 1 | 15 |  |
| N#C/C(=C\c1ccc(O)c(O)c1)C(=O)O |  | 400 |  |
| N#CC(C#N)=C(O)c1cc(O)c(O)c(O)c1 |  | 35 |  |
| N#CC(C#N)=Cc1cc(O)cc(O)c1 | 10 | 160 |  |
| N#C/C(=C\c1ccc(O)c(O)c1)C(N)=O |  | 4 |  |

Source: the Kinase Knowledgebase extract (Sharma et al. 2016)
